Consider two substances from US5885834A, “Antisense oligodeoxynucleotide against phosphodiesterase” (priority 1997, dated 1999).

Entries after “also recorded” stand apart in the source; their conditions may differ.

Holding throughout (format): cell-based, human
For series [1], the system named is isolated, quiescent HPBL. The experiment in a line: TUNEL assay of apoptosis, flow cytometry, quiescent HPBL. Conditions: isolated, quiescent HPBL in culture, ODN added. An excerpt:
(§1) Nevertheless, the effects of AS ODNs on HPBL can still be tested by quantifying and comparing the percentage of cells undergoing apoptosis in the presence and absence of the AS ODN. Apoptosis detected by examining endonuclease-digested DNA, commonly referred to as the DNA laddering technique, has been employed and the results therefrom are set forth in FIG. 5. However, we prefer to use a TUNEL assay, an acronym for terminal deoxynucleotidyl transferase (TdT)-mediated dUTP nick end labeling, which more readily allows quantitation of the percentage of cells undergoing apoptosis. The principle of the TUNEL assay is that endonuclease digestion during apoptosis results in the formation of 3'-OH ends in the digested DNA. The digested DNA in the apoptotic cells can then be labeled with fluorescein by catalytically incorporating fluorescein-12-dUTP at the 3'-OH ends using the TdT enzyme. Fluorescence can then be quantitated by flow cytometry, using a fluorescence activated cell sorter (FACS), which would give a measure of the number of cells undergoing apoptosis. An example of the appearance of a population of fluorescein labeled apoptotic cells, as evidenced by flow cytometry, following TUNEL assay labeling of the cells, is shown in FIGS. 6A-C. Cells were then cultured for 3 days with 10 μg/ml PHA-P (Sigma), in the absence of any ODN (FIG. 6A), in the presence of 30 μM NS ODN (FIG. 6B), or in the presence of 30 μM AS ODN (FIG. 6C). Cells were then collected by centrifugation and fluorescein labeled by the TUNEL assay using the Promega Apoptosis Detection System. Flow cytometry was performed on a Beckton Dickinson FACScan by the FACS facility.
The procedure for analyzing apoptosis by the TUNEL method uses either an In Situ Cell Death Kit, Fluorescein from Boehringer Mannheim or an Apoptosis Detection System, Fluorescein from Promega and follows the protocols of the manufacturers. The data in FIGS. 6 and 7 was obtained using the manufacturer's protocol for the Apoptosis Detection System, Fluorescein from Promega. […]

In series [2] the test system is β-actin mRNA in RPMI 8392 cells. The experiment in a line: Quantitative RT-PCR of β-actin mRNA (control gene) after ODN treatment. Conditions: 10 or 30 μM ODN, 1 and 2 days. The text has this: This is usually determined by looking at the reduction or disappearance of the protein product, either by selective measurement of an enzymatic activity of the protein, where applicable, or by immunoquantitation with specific antibodies by Western blot or ELISA techniques. Also, when PO or PS ODNs are used, which are capable of activating RNase H activity, it is expected that the mRNA of the targeted gene would be down regulated, most of the time, along with the protein product, and this can be readily tested by Northern blot analysis or PCR techniques. Using quantitative RT-PCR with primers specific for PDE1B1, we examined the RPMI 8392 cells for the presence of PDE1B1 mRNA. […] NS ODN, at these concentrations, had no effect on the expression of PDE1B1 mRNA. […]
HPBL were isolated from a normal human donor and placed in culture with (+PHA) or without (-PHA) phytohemagglutinin for 3 days. Quantitative RT-PCR was performed with 2 μg of HPBL RNA, using reagents and protocol from GIBCO/BRL. […]
(§2) Using quantitative RT-PCR, the effect of AS ODN and NS ODN on the level of mRNA for PDE1B1 in RPMI 8392 cells was examined. Quantitative RT-PCR was used to determine the relative amounts of β-actin and PDE1B1 mRNAs present in RPMI 8392 cells after 1 and 2 days in culture with 10 μM and 30 μM AS ODN (AS) and NS ODN (NS). […]

Series [3] concerns PDE1B1 mRNA in RPMI 8392 cells. Description: Quantitative RT-PCR of PDE1B1 mRNA after ODN treatment. The note with it: 10 or 30 μM ODN.
Text: This is usually determined by looking at the reduction or disappearance of the protein product, either by selective measurement of an enzymatic activity of the protein, where applicable, or by immunoquantitation with specific antibodies by Western blot or ELISA techniques. Also, when PO or PS ODNs are used, which are capable of activating RNase H activity, it is expected that the mRNA of the targeted gene would be down regulated, most of the time, along with the protein product, and this can be readily tested by Northern blot analysis or PCR techniques. Using quantitative RT-PCR with primers specific for PDE1B1, we examined the RPMI 8392 cells for the presence of PDE1B1 mRNA. […] NS ODN, at these concentrations, had no effect on the expression of PDE1B1 mRNA. […] In this connection, the expression of β-actin is unaffected by cAMP and, therefore, β-actin mRNA levels were used as a control. Another gene that is often also used for control measurements for this purpose is that of glyceraldehyde-3-phosphate dehydrogenase (G3PDH).
HPBL were isolated from a normal human donor and placed in culture with (+PHA) or without (-PHA) phytohemagglutinin for 3 days. Quantitative RT-PCR was performed with 2 μg of HPBL RNA, using reagents and protocol from GIBCO/BRL. Degenerate 23 nt primers were synthesized based on reported sequences for PDE1B1. The sequence of the forward primer (Primer 1) corresponds to nt -34 to -12 and the sequence of the reverse primer (Primer 2) is complementary to nt 277 to 299 of the PDE1B1 cDNA. […]
as §2

Series [4] has as its system PHA-stimulated HPBL. The experiment in a line: TUNEL assay of apoptosis, flow cytometry, PHA-stimulated HPBL. Conditions: 10 μg/ml PHA-P; 30 μM ODN; 3 days.
Text: as §1, with “Cells were then cultured for 3 days with 10 μg/ml PHA-P (Sigma), in the absence of any ODN (FIG. 6A), in the presence of 30 μM NS ODN (FIG. 6B), or in the presence of 30 μM AS ODN (FIG. 6C). Cells were then collected by centrifugation and fluorescein labeled by the TUNEL assay using the Promega Apoptosis Detection System. Flow cytometry was performed on a Beckton Dickinson FACScan by the FACS facility.” left out

Regarding “5'-GGACAGCTCCATGCTCAG-3' (phosphorothioate, further chemistry not given here) [AS ODN, 18 nt phosphorothioate antisense oligodeoxynucleotide targeted against the translation initiation region of PDE1B1]”, in series [1], the “Rate of formation of apoptotic HPBL cells (TUNEL)” value is recorded as “unchanged”. In addition, the “Levels of β-actin mRNA” value in series [2] is listed as “unaltered; also recorded: unchanged”. For the same substance, the “Level of PDE1B1 mRNA expression” value in series [3] (1 day) is recorded as “diminished”; in series [3] (2 days) it was “absent; also recorded: almost undetectable”. Besides, in series [4], the “Apoptosis in PHA-stimulated HPBL (TUNEL)” value is “show the appearance of a population of highly fluorescein labeled cells; also recorded: induced apoptosis”.
For “5'-TACGTGAGGCACCTACGC-3' (phosphorothioate, further chemistry not given here) [NS ODN, control phosphorothioate nonsense ODN, same base composition as the AS ODN in random, scrambled order]”, the “Rate of formation of apoptotic HPBL cells (TUNEL)” value in series [1] is “no different from control”. For the same substance, in series [2], the “Levels of β-actin mRNA” value is “no effect; also recorded: unchanged”. In addition, in series [3] (1 and 2 days), the “Level of PDE1B1 mRNA expression” value is reported as “no effect”. Further, the “Apoptosis in PHA-stimulated HPBL (TUNEL)” value in series [4] is “do not show the appearance of this population; also recorded: no effect”.
